Measured values reported in PubChem BioAssay AID248 (DTP/NCI, 2004).
Values joined by “and” are separate entries in the source; they are usually repeats but may differ in a detail not shown here. Equal values may be shown once. Inconclusive results and toxic doses are left out. Rule as the data show it: active = T/C of 150% or more; inactive = T/C below 125%.

Test system: L1210 leukemia ip in BDF1 mice, survival T/C
Test: NCI In Vivo Anticancer Drug Screen. Data for tumor model L1210 Leukemia (intraperitoneal) in B6D2F1 (BDF1) mice
Conditions: endpoint: mean survival time, higher = longer survival
Procedure, shortened: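 Each compound was tested against a transplantable tumor grown in mice. The endpoint was survival, with treated animals benchmarked against vehicle controls as a simple ratio.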

[1] = dose: 50.0 mg/kg/injection, schedule: Q01DX009 (ip), vehicle: Klucel (hydroxypropylcellulose) (HPC)
[2] = dose: 100.0 mg/kg/injection, schedule: Q01DX009 (ip), vehicle: Klucel (hydroxypropylcellulose) (HPC)
[3] = dose: 100.0 mg/kg/injection, schedule: Q04DX003 (ip), vehicle: Klucel (hydroxypropylcellulose) (HPC)
[4] = dose: 200.0 mg/kg/injection, schedule: Q01DX009 (ip), vehicle: Klucel (hydroxypropylcellulose) (HPC)
[5] = dose: 200.0 mg/kg/injection, schedule: Q04DX003 (ip), vehicle: Klucel (hydroxypropylcellulose) (HPC)
[6] = dose: 400.0 mg/kg/injection, schedule: Q04DX003 (ip), vehicle: Klucel (hydroxypropylcellulose) (HPC)
[7] = dose: 100.0 mg/kg/injection, schedule: Q01DX001 (ip), vehicle: saline
[8] = dose: 200.0 mg/kg/injection, schedule: Q01DX001 (ip), vehicle: saline
[9] = dose: 400.0 mg/kg/injection, schedule: Q01DX001 (ip), vehicle: saline
[10] = dose: 400.0 mg/kg/injection, schedule: Q01DX009 (ip), vehicle: Klucel (hydroxypropylcellulose) (HPC)
[11] = dose: 100.0 mg/kg/injection, schedule: Q04DX002 (ip), vehicle: saline
[12] = dose: 200.0 mg/kg/injection, schedule: Q04DX002 (ip), vehicle: saline
[13] = dose: 400.0 mg/kg/injection, schedule: Q04DX002 (ip), vehicle: saline
[14] = dose: 100.0 mg/kg/injection, schedule: Q01DX009 (ip), vehicle: saline with Tween-80
[15] = dose: 100.0 mg/kg/injection, schedule: Q01DX001 (ip), vehicle: carboxymethylcellulose (CMC)
[16] = dose: 200.0 mg/kg/injection, schedule: Q01DX001 (ip), vehicle: carboxymethylcellulose (CMC)
[17] = dose: 400.0 mg/kg/injection, schedule: Q01DX001 (ip), vehicle: carboxymethylcellulose (CMC)

Measured: T/C

CNC(=S)N/N=C(\C)CSC/C(C)=N/NC(=S)NC
inactive: dose: 1.56 mg/kg/injection, schedule: Q03HX024 (ip), vehicle: Klucel (hydroxypropylcellulose) (HPC) 97 % of control | dose: 3.12 mg/kg/injection, schedule: Q01DX009 (ip), vehicle: Klucel (hydroxypropylcellulose) (HPC) 95 % of control | dose: 3.12 mg/kg/injection, schedule: Q03HX024 (ip), vehicle: Klucel (hydroxypropylcellulose) (HPC) 93 % of control | dose: 6.25 mg/kg/injection, schedule: Q01DX009 (ip), vehicle: Klucel (hydroxypropylcellulose) (HPC) 92 % of control | dose: 6.25 mg/kg/injection, schedule: Q03HX024 (ip), vehicle: Klucel (hydroxypropylcellulose) (HPC) 92 % of control | dose: 6.25 mg/kg/injection, schedule: Q04DX003 (ip), vehicle: Klucel (hydroxypropylcellulose) (HPC) 95 % of control | dose: 12.5 mg/kg/injection, schedule: Q01DX009 (ip), vehicle: Klucel (hydroxypropylcellulose) (HPC) 93 % of control | dose: 12.5 mg/kg/injection, schedule: Q03HX024 (ip), vehicle: Klucel (hydroxypropylcellulose) (HPC) 95 % of control | dose: 12.5 mg/kg/injection, schedule: Q04DX003 (ip), vehicle: Klucel (hydroxypropylcellulose) (HPC) 102 % of control | dose: 25.0 mg/kg/injection, schedule: Q01DX009 (ip), vehicle: Klucel (hydroxypropylcellulose) (HPC) 109 % of control | dose: 25.0 mg/kg/injection, schedule: Q03HX024 (ip), vehicle: Klucel (hydroxypropylcellulose) (HPC) 103 % of control | dose: 25.0 mg/kg/injection, schedule: Q04DX003 (ip), vehicle: Klucel (hydroxypropylcellulose) (HPC) 97 % of control | dose: 30.0 mg/kg/injection, schedule: Q04DX003 (ip), vehicle: saline 98 % of control | [1] 104 % of control | dose: 50.0 mg/kg/injection, schedule: Q03HX024 (ip), vehicle: Klucel (hydroxypropylcellulose) (HPC) 106 % of control | dose: 60.0 mg/kg/injection, schedule: Q04DX003 (ip), vehicle: saline 98 % of control | [2] 108 % of control | dose: 100.0 mg/kg/injection, schedule: Q03HX024 (ip), vehicle: Klucel (hydroxypropylcellulose) (HPC) 116 % of control | [3] 92 % of control | dose: 120.0 mg/kg/injection, schedule: Q04DX003 (ip), vehicle: saline 101 % of control | [4] 96 % of control | [5] 107 % of control | [6] 98 % of control

O=C(COc1ccccc1)Nc1ccc[n+](Cc2ccc(S(=O)(=O)F)cc2)c1
inactive: dose: 100.0 mg/kg/injection, schedule: Q04DX003 (ip), vehicle: saline 95 % of control and 118 % of control | dose: 200.0 mg/kg/injection, schedule: Q04DX003 (ip), vehicle: saline 101 % of control and 118 % of control | dose: 400.0 mg/kg/injection, schedule: Q04DX003 (ip), vehicle: saline 95 % of control and 114 % of control

Cc1c2ccccc2c(CCl)c2ccc3ccccc3c12
inactive: dose: 12.5 mg/kg/injection, schedule: Q01DX009 (ip), vehicle: carboxymethylcellulose (CMC) 110 % of control | dose: 25.0 mg/kg/injection, schedule: Q01DX009 (ip), vehicle: carboxymethylcellulose (CMC) 113 % of control

NC(=O)c1ccccc1OC(=O)Nc1ccccc1
inactive: [1] 103 % of control | [2] 101 % of control | dose: 100.0 mg/kg/injection, schedule: Q04DX002 (ip), vehicle: Klucel (hydroxypropylcellulose) (HPC) 89 % of control | dose: 200.0 mg/kg/injection, schedule: Q04DX002 (ip), vehicle: Klucel (hydroxypropylcellulose) (HPC) 99 % of control

Cc1ccc(S(=O)(=O)NC(=O)N2CCCC2)cc1
inactive: dose: 50.0 mg/kg/injection, schedule: Q01DX001 (ip), vehicle: saline 109 % of control | [7] 97 % of control | [8] 94 % of control | [9] 88 % of control

COC(=O)c1ccc(C(=O)O)cc1[N+](=O)[O-]
inactive: [2] 102 % of control | [4] 102 % of control | [10] 90 % of control

CCCCSC(C)=N
inactive: [11] 97 % of control | [12] 105 % of control | [13] 97 % of control

CCC(CC)(Cc1ccccc1)C(=O)NC(=O)NOC
inactive: dose: 100.0 mg/kg/injection, schedule: Q01DX Z (ip), vehicle: methylcellulose (MC) 98 % of control | dose: 200.0 mg/kg/injection, schedule: Q01DX Z (ip), vehicle: methylcellulose (MC) 96 % of control

COc1ccc(OC)c(NC(=O)NC(C)(C)C)c1
inactive: [2] 101 % of control | [4] 103 % of control | [10] 88 % of control

NOCc1cscn1
inactive: [7] 98 % of control | [8] 101 % of control | [9] 101 % of control

O=C(Nc1ccccc1)Nc1cc(C(F)(F)F)ccc1Cl
inactive: [14] 86 % of control | dose: 100.0 mg/kg/injection, schedule: Q04DX003 (ip), vehicle: saline with Tween-80 91 % of control | dose: 200.0 mg/kg/injection, schedule: Q04DX003 (ip), vehicle: saline with Tween-80 90 % of control | dose: 400.0 mg/kg/injection, schedule: Q01DX009 (ip), vehicle: saline with Tween-80 92 % of control | dose: 400.0 mg/kg/injection, schedule: Q04DX003 (ip), vehicle: saline with Tween-80 95 % of control

O=C1CNCSC1
inactive: [11] 102 % of control | [12] 115 % of control | [13] 94 % of control

COc1ccc(CNCCC(=O)O)cc1OC
inactive: dose: 50.0 mg/kg/injection, schedule: Q01DX001 (ip), vehicle: carboxymethylcellulose (CMC) 107 % of control | [15] 100 % of control | [16] 105 % of control | [17] 105 % of control

O=C(Oc1c(Cl)cc(Cl)cc1C=Nc1cccc(C(F)(F)F)c1)c1ccccc1
inactive: dose: 100.0 mg/kg/injection, schedule: Q01DX009 (ip), vehicle: other 101 % of control | dose: 200.0 mg/kg/injection, schedule: Q01DX009 (ip), vehicle: other 101 % of control | dose: 400.0 mg/kg/injection, schedule: Q01DX009 (ip), vehicle: other 101 % of control

CCCCCCN(CCCCCC)C(C)=O
inactive: dose: 50.0 mg/kg/injection, schedule: Q04DX003 (ip), vehicle: other 103 % of control | dose: 100.0 mg/kg/injection, schedule: Q01DX001 (ip), vehicle: other 96 % of control | dose: 100.0 mg/kg/injection, schedule: Q04DX003 (ip), vehicle: other 98 % of control | dose: 200.0 mg/kg/injection, schedule: Q01DX001 (ip), vehicle: other 96 % of control | dose: 200.0 mg/kg/injection, schedule: Q04DX003 (ip), vehicle: other 93 % of control

Nc1ccc2c(c1)-c1ccc(F)cc1C2
inactive: [15] 89 % of control | [16] 100 % of control | [17] 94 % of control

CCCOCCOCCOC(C)Oc1ccc(C(=O)OC)cc1 (stereo not given)
inactive: [11] 101 % of control | [12] 101 % of control | [13] 99 % of control

O=C(Nc1ccccc1)Nc1ccccc1
inactive: dose: 50.0 mg/kg/injection, schedule: Q01DX009 (ip), vehicle: saline with Tween-80 96 % of control | [7] 97 % of control | [14] 91 % of control | [3] 90 % of control | [8] 92 % of control | dose: 200.0 mg/kg/injection, schedule: Q01DX009 (ip), vehicle: saline with Tween-80 103 % of control | [5] 95 % of control | [9] 94 % of control | [6] 96 % of control
